This is an account of results in US6821508B2, “Composition and method for topical nail treatment” (Rutgers, the State University, priority 2001, dated 2004).

Series [1] is described as follows: Enhancer screening: tritiated water permeation through nails in Franz-type diffusion cells (toenails). Particulars: Table 2; pyrithione gels, each relative to its own control.
Method: Frozen human toenails and fingernails were obtained from tissue banks based on a protocol for size, patient history, etc. The nails were thawed at room temperature for 1 hour, and the adhering skin and tissue was removed with a pair of scissors and a scalpel. The nails were cleaned by rinsing them in a mild detergent solution (1% solution of a standard liquid soap containing sodium and potassium dodecyl benzene sulfonate and ammonium laureth sulfate), followed by two rinses in deionized water (DI water). The thickness of the nails was measured with a micrometer, and the nails were immersed in 10 mL of DI water for 24 hours just prior to use to allow complete hydration and bring all the nails to the same condition for valid comparisons (Kobayashi, et al. (1998) Chem. Pharm. Bull. 46(11):1797-1802; Walters, et al. (1981) J Invest Dermatol 76:76-79; Mertin and Lippold (1997) J Pharm Pharmacol 49:30-34).
Franz-type diffusion cells (Crown Glass Co., Somerville, N.J.), specially designed to hold the human nail were used (Malhotra and Zatz (2000) J Cosmet Sci 51:367-377). The cleaned, trimmed nails were clamped into the diffusion cells. […]
All gels were prepared using the same general procedure. […] The apparent pH of the gels was measured. Prior to use, three 10 μL aliquots of the gel were analyzed by Liquid Scintillation Counting (LSC) to validate uniformity of spiking. […]
Series [2] in a line: Solubility of clotrimazole in PEG-20-oleyl ether receptor fluid (HPLC). The series is classed as physicochemical. The note with it: aqueous PEG-20-oleyl ether surfactant solution, 37 °C, aqueous with cosolvent or surfactant or cyclodextrin, thermodynamic from solid, read-out: Solubility of clotrimazole (Mean ± SEM, n = 3). The protocol: Aqueous solutions of PEG-20-oleyl ether in concentrations of 0.5%, 1%, 2%, and 5% were prepared. Excess clotrimazole was added to vials containing 10 mL of surfactant solution. For each surfactant concentration, the solubility determination was done in triplicate. The vials were agitated in a mechanical shaker bath (Precision Scientific, Chicago, Ill.) maintained at 37° C. for 24 hours. The vials were then centrifuged (Fisher Scientific, Springfield, N.J.) at 4600 rpm for 30 minutes at 25° C. The supernatant was analyzed for drug concentration by High Performance Liquid Chromatography (HPLC).
The HPLC conditions were adapted from well known methods, for example Hoogerheide, et al. ((1981) J Assoc Off Anal Chem 64:864-869) and Rifai, et al. ((1995) Clin Chem 41:387-391). The HPLC analysis was performed using a Waters 600E System Controller Pump, Waters 717 Autoinjector, Waters 486 Tunable Absorbance Detector, and Waters 700 Data Module Integrator. A reverse-phase C-18 column (Waters Novapak, 3.9×150 mm, 4μ) was used. The mobile phase consisted of a mixture of 0.025M dibasic potassium phosphate (pH adjusted to approximately 6.3 with o-phosphoric acid) and HPLC grade methanol in the ratio 1:3. A flow rate of 1 mL/minute was maintained and the detector wavelength was set at 254 nm.
Standard solutions of clotrimazole in mobile phase were prepared in the concentration range of 5-200 μg/mL. The injection volume of standard and sample solutions was 20 μL.
The chromatography conditions yielded a linear standard curve (R^2=0.9995). From the standard curve, the solubility of clotrimazole in different concentrations of PEG-20-oleyl ether was quantitatively determined.

For series [3] the following is noted: 25° C.; Hoogerheide and Wyka (1982); cited from earlier work.

≈ marks a conversion by molar mass, not a printed value. Where two headings read alike, the source gives them in different places.

In the case of `[Na+].[O-][n+]1ccccc1[S-]` [NaPTO, sodium pyrithione], the EFwater in series [1] is about 1.

For orientation: solubility means the dissolved amount per volume that the medium holds. As to `Clc1ccccc1C(c1ccccc1)(c1ccccc1)n1ccnc1` [clotrimazole], the solubility at 24 h came to 75.2 µg/mL (≈ 218 µM) in series [2] (0.5% PEG-20-oleyl ether in water), 191 µg/mL (≈ 553 µM) in series [2] (1.0% PEG-20-oleyl ether in water), 499 µg/mL (≈ 1450 µM) in series [2] (2.0% PEG-20-oleyl ether in water) and 1350 µg/mL (≈ 3930 µM) in series [2] (5.0% PEG-20-oleyl ether in water). Moreover, the solubility in alcohol in series [3] was 95 mg/mL (≈ 275000 µM). In addition, the solubility in water in series [3] is listed as under 0.01 mg/mL.

As for zinc pyrithione [ZnPTO], in series [1], the EFwater came out at 1.13.
